From US9939427B2, “Method for evaluating the scent performance of perfumes or perfume mixtures” (Symrise AG, priority 2013, dated 2018)

Assays:
OR10Q1 = molecular target: T1, OR10Q1 (Homo sapiens, UniProt Q8NGQ4); test: Ca-imaging of OR10Q1-transfected HEK293 cells; format: cell-based; parameters: key to OR10Q1 responded to odorant: ▪: 18 olfactory receptors responded to 32 odorants in related with specific anosmia; settings: for Response of OR10Q1 to odorant, in words: single odorants 200 μM
T1 construct: specific primers, which amplify the complete open reading frame; expressed in transfected cells; host or cells: HEK293
T1 sequence (Q8NGQ4 1-319): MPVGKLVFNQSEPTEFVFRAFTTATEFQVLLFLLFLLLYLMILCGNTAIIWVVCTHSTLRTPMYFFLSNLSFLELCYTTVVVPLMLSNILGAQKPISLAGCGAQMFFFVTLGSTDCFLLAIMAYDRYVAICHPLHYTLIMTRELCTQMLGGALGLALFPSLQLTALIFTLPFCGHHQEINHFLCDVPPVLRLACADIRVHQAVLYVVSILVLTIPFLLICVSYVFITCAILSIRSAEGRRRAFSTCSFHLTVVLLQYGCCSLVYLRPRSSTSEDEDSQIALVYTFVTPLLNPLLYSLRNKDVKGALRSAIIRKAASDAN
Method: HEK293 cells were cultivated in Petri dishes (Ø35 mm) as previously described (Benbernou et al. 2007). We grow up HEK293 cells in culture medium containing standard DMEM with 10% heat-inactivated fetal bovine serum, 2 mM L-glutamine, 100 units/ml penicillin, and 100 units/ml streptomycin in a humidified atmosphere (37° C., 5% CO2). After 2-3 days, the transfection process was carried out, whereby the cell culture was 70-80% confluent. The calciumphosphate method was applied to transfect DNA plasmid transiently in HEK293 cells in case of Ca-imaging method.
Calcium cations and phosphate anions created crystal precipitations coupled with DNA which could invade into the cells through endocytosis. Cells were transiently transfected with plasmid DNA which consists of pCI expression vector and PCR-amplified full-length cDNA of olfactory receptors candidates, and also Gα15, RTP1, Myr-Ric8A, HSC70, and m-Cherry as cofactors. The precipitation could be created after 15-20 min, with dropping the transfection solution on HEK293 cells. Before measuring by Ca-imaging cells were incubated 48-60 hours at 370 C, 5% CO2. Cationic liposome-mediated transfection method was applied to transfect DNA plasmid transiently in HANA3A cells in case of CRE-Luciferase and CRE-SEAP assays.
Calcium imaging of the transfected HEK293 cells was done by using chambers determinate an inverted microscope (Olympus; IX70) using a 10× objective (CPIanFL N Olympus). Fluorescence emission was determined every 4 s by using a CCD camera (Charge Coupled Device, C9100 Hamamatsu). The capillary tube which was responsible to supply odorants was generated closely above the cells. The columns filled with odorants, DMSO and ATP. Odorants were manually monitored to drop each 4-5 s to transfected cells. Solutions with drop wise form spread on HEK293 cells in 35 mm dishes.
In experiments, Fura-2 Acetoxymethylester (Fura-2/AM) was applied. The non-polar Fura2/AM is fluorescent but not yet calcium-sensitive. Once diffuses into cell plasma, Fura-2/AM is hydrolyzed to Fura-2 which is calcium-sensitive and functions as Ca2+ chelator. Regardless of the presence of calcium, Fura-2 emits at the wavelength of 510 nm. Once Fura-2 binds to free intracellular Ca2+ in cell plasma, its ratio of excitation at wavelengths of 340 nm and 380 nm is changed and correlated to the amount of intracellular Ca2+. According to this feature, the analysis of 340/380 nm excitation ratio for Fura-2 allows to quantify intracellular calcium levels.
In preparation for Ca-imaging measurements, transfected HEK293 cells were added 3 it Fura2/AM (3 μM) and incubated 30-45 min at 370 C, 5% CO2. After this step, experiments were carried out in a dark condition (Fura-2 is light-sensitive). After the incubation, medium of cell culture was replaced with 2 ml Ringer's solution.
Odorants were freshly prepared with DMSO as 1 M stocks solutions. Six mixtures (200 μM each chemical) were applied to cells sequentially (20 s each mixture/30 s Ringer). Those ORs tested with single odorants that had generated a response to odorant mixture group previously. Odorants were prepared in 100-200 μM concentration.
Ringer's solution was used for washing cells between measuring by two different odorants. Positive response was determined by the timing of the response, the strength of the response (more than twofold higher than the noise amplitude of the baseline), and the shape of the response curve (sharp rise in curve with gradual recovery). […]

[1] = tested on: HEK293 cells transfected with all cofactors and pCI plasmids without ORs; test: Ca-imaging of control HEK293 cells without OR; format: cell-based
Method in brief: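 HEK293 cells transfected by calcium phosphate with empty pCI plus Gα15, RTP1, Myr-Ric8A, HSC70 and mCherry, incubated 48–60 h, then loaded with 3 µM Fura-2/AM for 30–45 min. Odorants in Ringer's applied as mixtures at 200 µM each or singly at 100–200 µM, with 0.25 mM ATP at the end. Ca2+ followed as 340/380 nm ratio every 4 s; responses as ΔF/F0, judged by timing, amplitude above twice baseline noise and curve shape.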

OR10Q1-614 = test: Ca-imaging of mutant OR10Q1 in HEK293 cells; format: cell-based, human; settings: 200 μM, applied for 20 seconds
Description: Mutations were introduced for OR1B1 and OR10Q1 by Overlap Extension PCR (OEP). […] Flanking primers in combination with internal primers provided mutated gene segments, Full length primers included EcoRI and NotI restriction sites for further cloning into pCI expression vector. Site-directed mutations were selected for base of minor allele frequency of nucleotide.
In mutagenesis by overlap extension PCR method, initial PCRs provided mutated gene segments, with overlapping complementary 3′ ends carrying desired point mutation that were then mixed and used as template for a subsequent PCR to generate the full-length product. Overlapping strands of these intermediate products hybridize at this 3′ region in a subsequent PCR and are extended to generate the full-length product amplified by flanking primers; this shown in FIG. 2. […]
Calcium imaging of the transfected HEK293 cells was done by using chambers determinate an inverted microscope (Olympus; IX70) using a 10× objective (CPIanFL N Olympus). Fluorescence emission was determined every 4 s by using a CCD camera (Charge Coupled Device, C9100 Hamamatsu). […] Odorants were manually monitored to drop each 4-5 s to transfected cells. […]
In experiments, Fura-2 Acetoxymethylester (Fura-2/AM) was applied. […] According to this feature, the analysis of 340/380 nm excitation ratio for Fura-2 allows to quantify intracellular calcium levels. […]

OR10Q1 responded to odorant (OR10Q1; Ca-imaging, HEK293 cells, individual odorant 200 μM, significant response p<0.05): ▪
Response of OR10Q1 to odorant, in words (OR10Q1; Ca-imaging): responded
Response of OR10Q1 to odorant, in words (OR10Q1; Ca-imaging, listed as Cyclopentadecanolide): significantly responded
Response of OR10Q1 to odorant, in words (OR10Q1; Ca-imaging, listed as Pentadecalactone): responded
Number of cell responses, Experiment (OR10Q1) (OR10Q1; odorant 200 μM, approximately 2000 transfected cells in three times of measuring (Table 4, FIG. 5)): 52
Compound: O=C1CCCCCCCCCCCCCCO1 [Pentadecanolide, ω-cyclopentadecanolide]
Response of control cells, in words ([1]; 200 μM (FIG. 13)): did not respond
Number of cell responses, Control ([1]; odorant 200 μM, three times of measuring (Table 4, FIG. 5)): 2
Response of mutated OR10Q1 in comparison with OR10Q1 WT (OR10Q1-614): does not show any significant difference
Response of mutated OR10Q1 in comparison with OR10Q1 WT (OR10Q1-614; listed as pentadecalactone): did not show any difference
